Measured values reported in patent US11364220B2, “Compounds and methods for inhibiting CPY26 enzymes” (Queen's University at Kingston, priority 2016, dated 2022).

Assays:
[1] = target: CYP26A1 (Homo sapiens (Human), UniProt O43174); assay: Cell-based inhibitor assay, [H]-RA metabolism in CYP26A1 stably transfected HeLa cells; conditions: for IC50: CYP26A1 transfected HeLa cells, 3 hours at 37° C., inhibition of all trans-RA metabolism, read-out: IC50 26A1
Description: (§1) CYP26A1 or CYP26B1 stably transfected HeLa cells were maintained in Minimum Essential Medium (MEM) containing 10% fetal bovine serum (FBS) and 100 μg/mL hygromycin. Exponentially growing cells were harvested by incubation in trypsin. Cells were then collected and re-plated in 48-well culture plates at 5×10^5 cells in 0.2 mL of culture medium containing 0.05 μCi [H]-RA in the presence or absence of increasing concentrations of a test compound. The test compounds were diluted in dimethyl sulfoxide (DMSO) and then added in duplicate to wells at 0.01, 0.1, 1, 10 and 100 μM final concentration. […] Cells were incubated for 3 hours at 37° C. Retinoids were then extracted using the procedure of Bligh, et al., (1959), Canadian Journal of Biochemistry 37, 911-917, which was modified by using dichloromethane instead of chloroform. Each sample's water soluble radioactivity level was quantified using a β-scintillation counter (using Ecolume scintillation fluid, available from MP Biomedicals of Solon, Ohio, USA).

[2] = system: RA sensitive reporter construct pCYP26A1-luc in MCF-7 cells; assay: Retinoid activity assay, RA sensitive pCYP26A1-luc reporter in MCF-7 cells; assay type: cell-based; conditions: 24 hours, firefly relative to Renilla luciferase
Excerpt: This retinoid activity assay measures the ability of test compounds to induce expression of a transiently transfected RA sensitive reporter construct. In this assay, MCF-7 cells are transfected with a construct comprising an upstream promoter of the CYP26A1 gene containing 2 RA response elements driving expression of firefly luciferase (pCYP26A1-luc). Since CYP26A1 is highly inducible by RA in these cells, this construct serves as a sensitive reporter of retinoid-like transcriptional activity.
MCF-7 cells were maintained in RPMI-1640 medium containing 10% FBS. Exponentially growing cells were harvested by incubation in trypsin. Cells were then collected and plated in 24-well plates at 50,000 cells/well. Once cells reached 80-90% confluence (e.g., the next day), cells were transfected with two plasmids. The first plasmid was CYP26A1-luc construct (375 ng). The second plasmid was a control plasmid comprising the Renilla luciferase gene driven by constitutive thymidine kinase promoter (pRL-tk) (25 ng). Transfection was performed using FuGene 6 transfection reagent (Promega) with a 1:3 ratio of DNA:FuGene. 24 hours after transfection, cells were treated with test compounds diluted in DMSO in triplicate at 0.1, 1 and 10 μM final concentrations. As a positive control for reporter activation, cells were also treated with RA diluted in DMSO at the same concentrations listed above. DMSO treatment alone served as a negative control. After 24 hours of treatment, cells were harvested in passive lysis buffer (Promega) and luciferase activity in cell lysates were read using a luminometer. Data are expressed as the activity of firefly luciferase relative to Renilla luciferase (see Table 3). For CYP26A1 inhibitor compounds, no activation of the reporter was detected, while the related retinoid-like compound induces luciferase expression.

[3] = system: CYP26A1 expression in MCF-7 cells; assay: qPCR of endogenous RA target gene CYP26A1 in MCF-7 cells, compound alone; assay type: cell-based; conditions: 1 μM
Description: Additionally, for some compounds of particular interest, a second assay is performed to measure expression of endogenous RA target genes after treatment with test compounds in MCF-7 cells. Exponentially growing MCF-7 cells were treated with trypsin, collected and plated into 6-well culture dishes at 300,000 cells per well. Once cells reached confluency, they were treated with test compounds diluted in DMSO to a final concentration of 1 μM. As a positive control, cells were also treated with RA at 1 μM final concentration. After 24 hours of treatment, RNA was harvested using TRI reagent (available from Sigma-Aldrich, Oakville, Canada). cDNA was synthesized from 2 μg of total RNA using Superscript III cDNA synthesis kit with random priming (kit available from Life Technologies, Burlington, ON, Canada). Analysis of expression of a RA inducible CYP26A1 gene was quantified by qPCR normalized against expression of PMM2 with Sybr Select Master Mix (Life Technologies) and gene specific primers in a two-step thermal cycling reaction. Data is shown in Table 2 for select compounds of interest. […] See FIGS. 1 and 2 for graphs of retinoid activity.

[4] = target: CYP26B1 (Homo sapiens (Human), UniProt Q9NR63); assay: Cell-based inhibitor assay, [H]-RA metabolism in CYP26B1 stably transfected HeLa cells; conditions: for IC50: CYP26B1 transfected HeLa cells, 3 hours at 37° C., inhibition of all trans-RA metabolism, read-out: IC50 26B1
Sequence of CYP26B1 (Q9NR63 whole entry, species assumed): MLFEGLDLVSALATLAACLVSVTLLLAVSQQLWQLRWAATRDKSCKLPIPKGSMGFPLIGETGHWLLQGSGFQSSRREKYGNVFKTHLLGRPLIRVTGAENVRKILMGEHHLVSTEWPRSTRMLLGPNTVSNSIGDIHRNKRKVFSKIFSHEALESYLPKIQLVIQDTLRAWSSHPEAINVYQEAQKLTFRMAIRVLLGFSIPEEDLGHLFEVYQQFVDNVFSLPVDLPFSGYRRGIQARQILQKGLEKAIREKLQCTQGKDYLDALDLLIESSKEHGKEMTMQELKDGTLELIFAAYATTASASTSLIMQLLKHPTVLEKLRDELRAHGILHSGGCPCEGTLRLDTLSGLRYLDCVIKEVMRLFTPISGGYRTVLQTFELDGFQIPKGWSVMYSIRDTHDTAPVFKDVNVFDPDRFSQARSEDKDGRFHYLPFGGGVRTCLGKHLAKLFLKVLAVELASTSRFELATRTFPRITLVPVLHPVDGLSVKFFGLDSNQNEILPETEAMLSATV
Description: as §1

[5] = system: CYP26A1 expression in MCF-7 cells; assay: Enhancement of RA activity assay, qPCR of CYP26A1 in MCF-7 cells treated with RA plus compound; assay type: cell-based; conditions: 1 μM RA + 1 μM compound, 24, 48, 72 hours
Description: An RA activity assay was used to measure the ability of compounds that inhibit CYP26A1 to enhance activity of RA, for example, by limiting its catabolism. This assay measured expression of endogenous RA target genes in MCF-7 cells that have been treated with RA and a compound of interest. A compound that inhibits CYP26 activity will have the effect of prolonging the induction of RA target genes in response to RA.
Exponentially growing MCF-7 cells were treated with trypsin, collected and plated into 6-well culture dishes at 300,000 cells per well. […] RA was also added at a final concentration of 1 μM. RNA was harvested using Trizol reagent after 24, 48, and 72 hours of treatment. cDNA was synthesized from 2 μg of total RNA using Superscript III cDNA synthesis kit with random priming (available from Life Technologies, Burlington, ON, Canada). Analysis of expression of the RA inducible CYP26A1 gene was quantified by qPCR normalized against expression of PMM2 with Sybr Select Master Mix (Life Technologies) and gene specific primers in a two-step thermal cycling reaction. Data is provided for a CYP26A1 selective inhibitor, which enhances the induction of CYP26A1.

Sequence of CYP26A1 (O43174 whole entry, species assumed): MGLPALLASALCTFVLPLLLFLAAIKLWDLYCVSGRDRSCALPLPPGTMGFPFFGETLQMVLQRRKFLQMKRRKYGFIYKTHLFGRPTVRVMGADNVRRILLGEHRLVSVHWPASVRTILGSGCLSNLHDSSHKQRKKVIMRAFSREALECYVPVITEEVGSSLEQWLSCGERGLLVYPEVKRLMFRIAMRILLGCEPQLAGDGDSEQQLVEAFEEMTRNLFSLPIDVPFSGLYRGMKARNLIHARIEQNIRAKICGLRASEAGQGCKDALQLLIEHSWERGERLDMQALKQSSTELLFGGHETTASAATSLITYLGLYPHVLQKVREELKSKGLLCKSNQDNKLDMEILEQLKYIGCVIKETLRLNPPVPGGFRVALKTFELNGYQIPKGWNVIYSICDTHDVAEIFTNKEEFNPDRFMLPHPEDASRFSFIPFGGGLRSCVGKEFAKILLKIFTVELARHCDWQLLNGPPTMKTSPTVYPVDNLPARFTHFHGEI

SMILES	inhibitory activity towards CYP26A1 (in words) [1]	IC50 [1]	Luciferase Activity RLU Avg ([2]; 0.1 μM)	Luciferase Activity RLU Avg ([2]; 1 μM)	Luciferase Activity RLU Avg ([2]; 10 μM)	expression of RA target genes, compound given alone (in words) [3]	retinoid-like activity (in words) ([3]; FIG. 8)	inhibition of CYP26B1 enzyme (in words) [4]	IC50 [4]	inhibition of CYP26A1-mediated RA metabolism compared with ketoconazole (in words) ([1]; see IC50 values in Table 2)	enhancement of RA signaling, induction of CYP26A1 expression (in words) [5]	enhancement of RA signaling, induction of CYP26A1 expression (in words) ([5]; listed as GGP12)
CC1(C)CCC(C)(C)c2cc(S(=O)(=O)Nc3ccc(C(=O)O)cc3)ccc21 [Cmpd 15]	does not exhibit any inhibitory activity	> 1000 µM	0.129 RLU	0.212 RLU	0.816 RLU	induces expression of the RA target gene CYP26A1	does exhibit retinoid-like activity	does not exhibit any inhibitory activity	> 100 µM			
Cc1cc2c(cc1S(=O)(=O)Nc1ccc(C(C)(C)C(=O)O)cc1)C(C)(C)CCC2(C)C [Cmpd 12]	selective inhibitory activity towards CYP26A1	0.1 µM	0.067 RLU	0.082 RLU	0.041 RLU			None of the above compounds inhibited the CYP26B1 enzyme	> 1000 µM	comparable to or better than ketoconazole	greatly enhance RA signaling	enhancement of RA signaling
